# In EP0185020B1, “NI[…] PREPARATION THEREOF AND UTILIZATION THEREOF IN ANTICANCEROUS CHEMIOTHERAPY” (CENTRE NATIONAL DE LA RECHERCHE SCIENTIFIQUE (CNRS), priority 1984, dated 1985):
# Read-outs that look alike come from different tables or passages of the source.
# Experiments:
# [1] = system: leucémie L 1210 greffée i.p.; assay: Antitumour activity on L1210 leukaemia grafted i.p. in mice, A1 and A2 injected separately (ICIG, Example 12); format: in vivo, souris B6D2F1/OLA; conditions: for T/C × 100: i.v.
# Excerpt: Au jour J: 0, des souris mâles B6D2F1 âgées de trois mois reçoivent par voie intrapéritonéale 10^5 cellules de la souche leucémique L 1210. Les animaux sont répartis en lots de 8 à 10 animaux pour les groupes témoins et de 6 à 8 animaux pour les groupes traités. Aux jours J : 1, J : 5, J : 9, les animaux reçoivent par voie intrapéritonéale ou intraveineuse le traitement à différentes doses. La CNCC est administrée en suspension dans l'huile d'olive. Les produits selon l'invention sont administrés dans du sérum physiologique. La mortalité est enregistrée tous les jours. La médiane de survie des animaux traités et des animaux témoins a été déterminée. Les résultats sont considérés comme positifs lorsque l'index I = [formula] est supérieur à 125.
# La valeur ∞ signifie que 50 à 100% des animaux sont survivants au jour J : 90.
# L'activité cytostatique sur la leucémie L 1210 de A, et A2 a été évaluée à l'ICIG chez des souris B6D2F1/OLA.
# II a en outre été procédé à l'ICIG à une étude de l'activité antitumorale sur la leucémie L 1210 de chaque isomère A, et AZ administré séparément par voie intraveineuse. Les résultats sont rassemblés sur le tableau IV. […] La comparaison des doses actives à celles de la CNCC est impossible pour les raisons d'insolubilité de la CNCC énoncées précédemment.
# souche leucémique L1210 = assay: Antitumour activity on L1210 leukaemia inoculated i.p. in mice (ICIG, Example 11); format: in vivo, souris B6D2F1/OLA; conditions: jours 1,5,9, résultats partiels
# Excerpt: L'activité oncostatique de ces dérivés nitrosés a été déterminée à l'ICIG de Villejuif (Service du Pr. Mathe), en suivant un protocole expérimental décrit: M. Hayat et Coll., Cancer Chemother. Phar- macol., 1979, 3,217-221, R. Maral et Coll., Eur. J. Med. Chem., soumis pour publication.
# (§1) Des souris B6D2F1/OLA, mâles, sont inoculées avec 10^5 cellules de la souche leucémique L1210 par voie intrapéritonéale au jour 0 et divisées en groupes. Le premier est le groupe témoin et les autres sont traités avec les drogues à différentes concentrations au jour 1,5 et 9. Les composés sont injectés en suspension dans l'huile d'olive. La mortalité des animaux est observée et l'autopsie indique si elle est due à la leucémie ou à l'action toxique des produits.
# (§2) La dose létale 50% (DL50 aiguë) est déterminée en tenant compte de la mortalité survenue avant le huitième jour chez les animaux traités au jour J: 1. La médiane de survie des animaux traités (mT) et des animaux témoin (mC) a été établie et le test statistique non paramétrique de Wilcoxon a été utilisé. Les résultats sont considérés positifs si l'indice I (I = ^mT x 100) est supérieur à 125 et le test mC significatif à p ≼ 0,05. La valeur ∞ indique que 50% ou plus des animaux sont survivants au jour +60.
# Plus l'intervalle des doses à efficacité maximale, ayant donc I = ∞, est important, plus le produit est doué d'une activité intéressante sur la leucémie L1210.
# [2] = Acute lethal dose 50% (DL50 aiguë), i.p.; format: in vivo, souris B6D2F1/OLA
# Excerpt: as §1, §2
# [3] = system: Leucémie L 1210 (greffée par voie i.c.); design: key: N.S.: Non significatif; ∞: 50% en plus des animaux traités sont guéris; conditions: Leucémie L 1210 i.c., jours 1,5,9, cited from earlier work
# [4] = system: Fibrosarcome I.C.I.G. C1 (implanté en sous-cutané); design: key: N.S.: Non significatif; ∞: 50% en plus des animaux traités sont guéris; conditions: jours 1,5,9, cited from earlier work
# [5] = system: Gliome 26 (implanté en sous-cutané); design: key: N.S.: Non significatif; ∞: 50% en plus des animaux traités sont guéris; conditions: Gliome 26 s.c., jours 1,5,9, cited from earlier work
# [6] = system: Carcinome pulmonaire de Lewis (implanté en sous-cutané); design: key: N.S.: Non significatif; ∞: 50% en plus des animaux traités sont guéris; conditions: jours 1,5,9, cited from earlier work
# [7] = system: M 555 ovarienne (implanté en sous-cutané); design: key: N.S.: Non significatif; ∞: 50% en plus des animaux traités sont guéris; conditions: M 555 ovarienne s.c., jours 1,5,9, cited from earlier work
# [8] = system: Carcinome du côlon (côlon 26) (implanté en sous-cutané); design: key: N.S.: Non significatif; ∞: 50% en plus des animaux traités sont guéris; conditions: Carcinome du côlon (côlon 26) s.c., jours 1,5,9, cited from earlier work
# [9] = system: Mélano-carcinome B 16 (implanté en sous-cutané); design: key: N.S.: Non significatif; ∞: 50% en plus des animaux traités sont guéris; conditions: Mélano-carcinome B 16 s.c., jours 1,5,9, cited from earlier work
# [10] = system: Adénocarcinome mammaire TM2 (implanté en sous-cutané); design: key: N.S.: Non significatif; ∞: 50% en plus des animaux traités sont guéris; conditions: jours 1,5,9, cited from earlier work
structure (smiles),measurement,setting,value
C[S+]([O-])CCNC(=O)N(CCCl)N=O (stereo not shown) [A2],"activité antitumorale sur la leucémie L 1210, in words",[1]; each isomer given separately i.v.,forte activité
same,T/C × 100,[1]; 1 mg/kg,100
same,T/C × 100,[1]; 5 mg/kg,∞ (La valeur ∞ signifie que 50 à 100% des animaux sont survivants au jour J : 90)
same,T/C × 100,[1]; 10 mg/kg,∞ (La valeur ∞ signifie que 50 à 100% des animaux sont survivants au jour J : 90)
same,T/C × 100,[1]; 20 mg/kg,63
same,T/C × 100,[1]; 30 mg/kg,63
same,T/C × 100,[1]; 40 mg/kg,63
"O=NN(CCCl)C(=O)NCCSC(c1ccccc1)(c1ccccc1)c1ccccc1 [(9) ICIG 2069, S-trityl N-[N-(chloro-2 éthyl) N-nitrosocarbamoyl] cystéamine]",I = T/c × 100,souche leucémique L1210; 250 mg/kg i.p.,> 278
same,I = T/c × 100,souche leucémique L1210; 625 mg/kg i.p.,> 278
same,"toxicité, in words",[2],n'est pas toxique
CC1(C)O[C@@H]2[C@@H](COC(=O)c3ccc([N+](=O)[O-])cc3)OC(NC(=O)N(CCCl)N=O)[C@@H]2O1 (stereo partly shown) [RFCNU],Augmentation de la durée de survie (I.L.S.: T/C×100),[3]; 20 mg/kg I.P.,167
same,Augmentation de la durée de survie (I.L.S.: T/C×100),[4]; 20 mg/kg I.P.,∞ (50% en plus des animaux traités sont guéris)
same,Augmentation de la durée de survie (I.L.S.: T/C×100),[5]; 20 mg/kg I.P.,N.S.
same,Augmentation de la durée de survie (I.L.S.: T/C×100),[6]; 20 mg/kg I.P.,N.S.
same,Augmentation de la durée de survie (I.L.S.: T/C×100),[7]; 20 mg/kg I.P.,N.S.
same,Augmentation de la durée de survie (I.L.S.: T/C×100),[8]; 20 mg/kg I.P.,N.S.
same,Augmentation de la durée de survie (I.L.S.: T/C×100),[9]; 20 mg/kg I.P.,144
same,Augmentation de la durée de survie (I.L.S.: T/C×100),[10]; 20 mg/kg I.P.,N.S.
O=NN(CCCl)C(=O)NCCO [HECNU],Augmentation de la durée de survie (I.L.S.: T/C×100),[3]; 10 mg/kg I.P.,∞ (50% en plus des animaux traités sont guéris)
same,Augmentation de la durée de survie (I.L.S.: T/C×100),[4]; 10 mg/kg I.P.,N.S.
same,Augmentation de la durée de survie (I.L.S.: T/C×100),[5]; 10 mg/kg I.P.,182
same,Augmentation de la durée de survie (I.L.S.: T/C×100),[6]; 10 mg/kg I.P.,∞ (50% en plus des animaux traités sont guéris)
same,Augmentation de la durée de survie (I.L.S.: T/C×100),[7]; 10 mg/kg I.P.,210
same,Augmentation de la durée de survie (I.L.S.: T/C×100),[8]; 10 mg/kg I.P.,∞ (50% en plus des animaux traités sont guéris)
same,Augmentation de la durée de survie (I.L.S.: T/C×100),[9]; 10 mg/kg I.P.,198
same,Augmentation de la durée de survie (I.L.S.: T/C×100),[10]; 10 mg/kg I.P.,165
O=NN(CCCl)C(=O)N[C@H]1C(O)O[C@H](CO)[C@@H](O)[C@@H]1O (stereo partly shown) [CHLOROZOTOCINE],Augmentation de la durée de survie (I.L.S.: T/C×100),[3]; 15 mg/kg I.P.,N.S.
same,Augmentation de la durée de survie (I.L.S.: T/C×100),[4]; 15 mg/kg I.P.,∞ (50% en plus des animaux traités sont guéris)
same,Augmentation de la durée de survie (I.L.S.: T/C×100),[5]; 15 mg/kg I.P.,N.S.
same,Augmentation de la durée de survie (I.L.S.: T/C×100),[6]; 15 mg/kg I.P.,N.S.
same,Augmentation de la durée de survie (I.L.S.: T/C×100),[7]; 15 mg/kg I.P.,∞ (50% en plus des animaux traités sont guéris)
same,Augmentation de la durée de survie (I.L.S.: T/C×100),[8]; 15 mg/kg I.P.,∞ (50% en plus des animaux traités sont guéris)
same,Augmentation de la durée de survie (I.L.S.: T/C×100),[9]; 15 mg/kg I.P.,N.S.
same,Augmentation de la durée de survie (I.L.S.: T/C×100),[10]; 15 mg/kg I.P.,N.S.
